By IC50 is commonly meant the concentration that inhibits the measured activity by half. Read a low IC50 as greater potency.

Here are results for one molecule from paper PMC7011920, “Synthesis and biological evaluation of stilbene derivatives coupled to NO donors as potential antidiabetic agents” (Journal of Enzyme Inhibition and Medicinal Chemistry, 2018).

The test system of this experiment is AGEs (advanced glycation end products) formation. Nature of the experiment: In vitro inhibitory activity of AGEs formation (bovine serum albumin/glucose, fluorescence). As to the method:
Advanced glycation end products are a group of complex and heterogeneous compounds, which are implicated in a number of biochemical abnormalities associated with diabetes[21]^,[22]. Therefore, the discovery of AGEs inhibitors would be beneficial to the prevention and treatment of diabetic or other pathogenic complications.
To prepare the AGE reaction solution, 10 mg/ml of bovine serum albumin in 50 mM PBS (pH 7.4) was added to 0.2 M glucose, and 0.02% sodium azide was added to prevent bacterial growth. The reaction mixture (3 ml) was then mixed with various concentrations (0.5–1000 µg/ml) of the target compounds (1 ml) dissolved in DMSO. After incubating at 37 °C for 14 d, the fluorescence intensity of AGE was determined by a fluorospectrophotometer (PE, Cincinnati, OH) with excitation and emission wavelengths at 350 nm and 420 nm[30], respectively. All experiments were run in triplicate. Aminoguanidine hydrochloride was used as a reference compound. The inhibition rate of AGEs formation and the IC50 value of each sample were calculated according to the formula. Inhibition rate %={[(AC−AB)−(AS−ASB)]/(AC−AB)}×100% where AC is the absorbance of control group (1.0 ml glucose +1.0 ml bovine serum albumin +1.0 ml sodium azide +1.0 ml DMSO); AB is the absorbance of blank group (1.0 ml PBS +1.0 ml bovine serum albumin +1.0 ml sodium azide +1.0 ml DMSO); AS is the absorbance of sample group (1.0 ml glucose +1.0 ml bovine serum albumin +1.0 ml sodium azide +1.0 ml target compound solution or aminoguanidine hydrochloride solution); ASB is the absorbance of sample blank group (1.0 ml PBS +1.0 ml bovine serum albumin +1.0 ml sodium azide +1.0 ml target compound solution or aminoguanidine hydrochloride solution).

For `COc1cc(/C=C/c2ccc(OCCCCCCO[N+](=O)[O-])cc2)cc(OC)c1` [3c], the IC50 (50% inhibition of fluorescence intensity of AGE relative to 0.1% DMSO, mean ± SD (n = 3)) worked out at 1.49 ± 0.2 µM. The “AGEs formation inhibitory activity compared with positive reference AG” value (ratio to AG) is “over 100 folds”.
